According to patent EP4737449A1 (Changchun Genescience Pharmaceutical Co., Ltd., priority 2023, dated 2025):

The compounds below were run against T1, p53-Y220C mutant protein (Homo sapiens, UniProt P04637, Y220C) (assay: In vitro DNA binding activity assay (TR-FRET)). Settings: concentration required to increase the binding activity of protein to DNA by 50%.
T1 construct: The recombinant Y220C p53 DBD protein with his-tag
Type: biochemical
In short: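 His-tagged Y220C p53 DBD was equilibrated with compound 60 min at room temperature, then biotin-DNA, anti-6His-Eu and streptavidin-d2 were added and incubated overnight in the dark. TR-FRET 665/615 nm ratio, background-corrected, was expressed as % activity versus vehicle; SC150 is the concentration raising DNA binding by 50%.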

Structure (SMILES)	SC150
Cc1ccc(C(=O)NCC#Cc2nn3c(N[C@@H]4CCN(C)C[C@@H]4F)cccc3c2CC(F)(F)F)c(N)n1 [Compound 295, 2-amino-N-[3-(7-{[(3S,4R)-3-fluoro-1-methylpiperidin-4-yl]amino}-3-(2,2,2-trifluoroethyl)pyrazolo[1,5-a]pyridin-2-yl)prop-2-yn-1-yl]-6-methylnicotinamide]	45 nM
CN1CC[C@@H](Nc2cccc3c(CC(F)(F)F)c(C#CCNC(=O)c4ccn5c4CCC5)nn23)[C@@H](F)C1 [Compound 302, N-[3-(7-{[(3S,4R)-3-fluoro-1-methylpiperidin-4-yl]amino}-3-(2,2,2-trifluoroethyl)pyrazolo[1,5-a]pyridin-2-yl)prop-2-yn-1-yl]-2,3-dihydro-1H-pyrrolizine-7-carboxamide]	25 nM
CN1CC[C@@H](Nc2cccc3c(CC(F)(F)F)c(C#CCNC(=O)c4cnn(C5(O)CC5)c4)nn23)[C@@H](F)C1 [Compound 303, N-[3-(7-{[(3S,4R)-3-fluoro-1-methylpiperidin-4-yl]amino}-3-(2,2,2-trifluoroethyl)pyrazolo[1,5-a]pyridin-2-yl)prop-2-yn-1-yl]-1-(1-hydroxycyclopropyl)-1H-pyrazole-4-carboxamide]	14 nM
CN1CC[C@@H](Nc2cccc3c(CC(F)(F)F)c(C#CCNC(=O)c4cnn(C5(F)CC5)c4)nn23)[C@@H](F)C1 [Compound 304]	13 nM
CNc1c(C(=O)NCC#Cc2nn3c(N[C@@H]4CCN(C)C[C@@H]4F)cccc3c2CC(F)(F)F)cnn1C(C)(C)C [Compound 307, 1-(tert-butyl)-N-[3-(7-{[(3S,4R)-3-fluoro-1-methylpiperidin-4-yl]amino}-3-(2,2,2-trifluoroethyl)pyrazolo [1,5-a]pyridin-2-yl)prop-2-yn-1-yl]-5-(methylamino)-1H-pyrazole-4-carboxamide]	32 nM
CN1CC[C@@H](Nc2cccc3c(CC(F)(F)F)c(C#CCNC(=O)c4cn(C)c(C(F)F)n4)nn23)[C@@H](F)C1 [Compound 309, 2-difluoromethyl-N-[3-(7-{[(3S,4R)-3-fluoro-1-methylpiperidin-4-yl]amino}-3-(2,2,2-trifluoroethyl)pyrazolo[1,5-a]pyridin-2-yl)prop-2-yn-1-yl]-1-methyl-1H-imidazole-4-carboxamide]	74 nM
CN1CC[C@@H](Nc2cccc3c(CC(F)(F)F)c(C#CCNC(=O)c4cnn(CCO)c4)nn23)[C@@H](F)C1 [Compound 310, N-[3-(7-{[(3S,4R)-3-fluoro-1-methylpiperidin-4-yl]amino}-3-(2,2,2-trifluoroethyl)pyrazolo[1,5-a]pyridin-2-yl)prop-2-yn-1-yl]-1-(2-hydroxyethyl)-1H-pyrazole-4-carboxamide]	11 nM
CC(C)c1cc(C(=O)NCC#Cc2nn3c(N[C@@H]4CCN(C)C[C@@H]4F)cccc3c2CC(F)(F)F)no1 [Compound 321, N-[3-(7-{[(3S,4R)-3-fluoro-1-methylpiperidin-4-yl]amino}-3-(2,2,2-trifluoroethyl)pyrazolo[1,5-a]pyridin-2-yl)prop-2-yn-1-yl]-5-isopropylisoxazole-3-carboxamide]	99 nM
CC(C)c1cc(C(=O)NCC#Cc2nn3c(N[C@@H]4CCN(C)C[C@@H]4F)cccc3c2CC(F)(F)F)on1 [Compound 323, N-[3-(7-{[(3S,4R)-3-fluoro-1-methylpiperidin-4-yl]amino}-3-(2,2,2-trifluoroethyl)pyrazolo[1,5-a]pyridin-2-yl)prop-2-yn-1-yl]-3-isopropylisoxazole-5-carboxamide]	57 nM
CN1CC[C@@H](Nc2cccc3c(CC(F)(F)F)c(C#CCNC(=O)c4ncn(C)n4)nn23)[C@@H](F)C1 [Compound 324, N-[3-(7-{[(3S,4R)-3-fluoro-1-methylpiperidin-4-yl]amino}-3-(2,2,2-trifluoroethyl)pyrazolo[1,5-a]pyridin-2-yl)prop-2-yn-1-yl]-1-methyl-1H-1,2,4-triazole-3-carboxamide]	29 nM
CN1CC[C@@H](Nc2cccc3c(CC(F)(F)F)c(C#CCNC(=O)c4cnn(C)n4)nn23)[C@@H](F)C1 [Compound 325, N-[3-(7-{[(3S,4R)-3-fluoro-1-methylpiperidin-4-yl]amino}-3-(2,2,2-trifluoroethyl)pyrazolo[1,5-a]pyridin-2-yl)prop-2-yn-1-yl]-2-methyl-2H-1,2,3-triazole-4-carboxamide]	35 nM
CN1CC[C@@H](Nc2cccc3c(CC(F)(F)F)c(C#CCNC(=O)c4cnn(C)c4F)nn23)[C@@H](F)C1 [Compound 327, 5-fluoro-N-[3-(7-{[(3S,4R)-3-fluoro-1-methylpiperidin-4-yl]amino}-3-(2,2,2-trifluoroethyl)pyrazolo[1,5-a]pyridin-2-yl)prop-2-yn-1-yl]-1-methyl-1H-pyrazole-4-carboxamide]	27 nM
CCn1cc(C(=O)NCC#Cc2nn3c(N[C@@H]4CCN(C)C[C@@H]4F)cccc3c2CC(F)(F)F)c(N)n1 [Compound 329, 3-amino-1-ethyl-N-(3-(7-{[(3S,4R)-3-fluoro-1-methylpiperidin-4-yl]amino}-3-(2,2,2-trifluoroethyl)pyrazolo[1,5-a]pyridin-2-yl)prop-2-yn-1-yl]-1H-pyrazole-4-carboxamide]	9 nM

Other lines, results leading:

SC150	Structure (SMILES)
33 nM	CN1CC[C@@H](Nc2cccc3c(CC(F)(F)F)c(C#CCNC(=O)c4cccc(C(C)(C)O)c4)nn23)[C@@H](F)C1 [Compound 334, N-[3-(7-{[(3S,4R)-3-fluoro-1-methylpiperidin-4-yl]amino}-3-(2,2,2-trifluoroethyl)pyrazolo[1,5-a]pyridin-2-yl)prop-2-yn-1-yl)-3-(2-hydroxyprop-2-yl)benzamide]
41 nM	COc1cncc(C(=O)NCC#Cc2nn3c(N[C@@H]4CCN(C)C[C@@H]4F)cccc3c2CC(F)(F)F)c1 [Compound 335, N-[3-(7-{[(3S,4R)-3-fluoro-1-methylpiperidin-4-yl]amino}-3-(2,2,2-trifluoroethyl)pyrazolo[1,5-a]pyridin-2-yl)prop-2-yn-1-yl]-5-methoxynicotinamide]
68 nM	CCc1cc(C(=O)NCC#Cc2nn3c(N[C@@H]4CCN(C)C[C@@H]4F)cccc3c2CC(F)(F)F)cs1 [Compound 336, 5-ethyl-N-[3-(7-{[(3S,4R)-3-fluoro-1-methylpiperidin-4-yl]amino}-3-(2,2,2-trifluoroethyl)pyrazolo[1,5-a]pyridin-2-yl)prop-2-yn-1-yl]thiophene-3-carboxamide]
92 nM	CN1CC[C@@H](Nc2cccc3c(CC(F)(F)F)c(C#CCNC(=O)c4cccc(F)c4)nn23)[C@@H](F)C1 [Compound 339, 3-fluoro-N-[3-(7-{[(3S,4R)-3-fluoro-1-methylpiperidin-4-yl]amino}-3-(2,2,2-trifluoroethyl)pyrazolo[1,5-a]pyridin-2-yl)prop-2-yn-1-yl]benzamide]
25 nM	CCn1ncc(C(=O)NCC#Cc2nn3c(N[C@@H]4CCN(C)C[C@@H]4F)cccc3c2CC(F)(F)F)c1Cl [Compound 343]
56 nM	CCn1cc(C(=O)NCC#Cc2nn3c(N[C@@H]4CCN(C)C[C@@H]4F)cccc3c2CC(F)(F)F)c(Cl)n1 [Compound 344]
18 nM	CN1CC[C@@H](Nc2cccc3c(CC(F)(F)F)c(C#CCNC(=O)c4cnn(C(C)(C)C5CC5)c4)nn23)[C@@H](F)C1 [Compound 346, 1-(2-cyclopropylprop-2-yl)-N-[3-(7-{[(3S,4R)-3-fluoro-1-methylpiperidin-4-yl]amino}-3-(2,2,2-trifluoroethyl)pyrazolo[1,5-a]pyridin-2-yl)prop-2-yn-1-yl]-1H-pyrazole-4-carboxamide]
28 nM	CCc1c(C#CCNC(=O)c2cnn(C(C)(C)C)c2N)nn2c(N[C@@H]3CCN(C)C[C@@H]3F)cccc12 [Compound 348, 5-amino-1-tert-butyl-N-[3-(3-ethyl-7-{[(3S,4R)-3-fluoro-1-methylpiperidin-4-yl]amino}-pyrazolo[1,5-a]pyridin-2-yl)prop-2-yn-1-yl]-1H-pyrazole-4-carboxamide]
12 nM	CN1CC[C@@H](Nc2cccc3c(CC(F)(F)F)c(C#CCNC(=O)c4cn(CC5CCCC5)nc4N)nn23)[C@@H](F)C1 [Compound 349]
13 nM	CN1CC[C@@H](Nc2cccc3c(CC(F)(F)F)c(C#CCNC(=O)c4cn(C5CC5)nc4N)nn23)[C@@H](F)C1 [Compound 350, 3-amino-N-[3-(7-{[(3S,4R)-3-fluoro-1-methylpiperidin-4-yl]amino}-3-(2,2,2-trifluoroethyl)pyrazolo[1,5-a]pyridin-2-yl)prop-2-yn-1-yl]-1-(cyclopropyl)-1H-pyrazole-4-carboxamide]
13 nM	CN1CC[C@@H](Nc2cccc3c(CC(F)(F)F)c(C#CCNC(=O)c4cn(CC(C)(C)C)nc4N)nn23)[C@@H](F)C1 [Compound 352]
87 nM	CN1CC[C@@H](Nc2cccc3c(CC(F)(F)F)c(C#CCNC(=O)c4cn(C(C)(C)C)nc4O)nn23)[C@@H](F)C1 [Compound 356, 1-(tert-butyl)-N-[3-(7-{[(3S,4R)-3-fluoro-1-methylpiperidin-4-yl]amino}-3-(2,2,2-trifluoroethyl)pyrazolo[1,5-a]pyridin-2-yl)prop-2-yn-1-yl]-3-hydroxy-1H-pyrazole-4-carboxamide]
160 nM	Cc1cc(N[C@@H]2CCN(C)C[C@@H]2F)n2nc(C#CCNC(=O)c3cnn(C(C)(C)C)c3N)c(CC(F)(F)F)c2c1 [Compound 360, 5-amino-1-tert-butyl-N-[3-(7-{[(3S,4R)-3-fluoro-1-methylpiperidin-4-yl]amino}-5-methyl-3-(2,2,2-trifluoroethyl)pyrazolo[1,5-a]pyridin-2-yl)prop-2-yn-1-yl]-1H-pyrazole-4-carboxamide]
49 nM	CC(C)(C)n1ncc(C(=O)NCC#Cc2nn3c(NC4CCOCC4)cccc3c2CC(F)(F)F)c1N [Compound 361, 5-amino-1-tert-butyl-N-(3-(7-[(tetrahydro-2H-pyran-4-yl)amino]-3-(2,2,2-trifluoroethyl)pyrazolo[1,5-a]pyridin-2-yl)prop-2-yn-1-yl)-1H-pyrazole-4-carboxamide]
